Values quoted from earlier work as cited in patent US20200215022A1, “NOVEL CANNABINOID COMPOSITIONS AND METHODS OF TREATING PEDIATRIC EPILEPSY” (TILRAY, INC., priority 2016, published 2020).

Assays:
[1] = biological target: T1, CYP2B6 (Homo sapiens, UniProt P20813)
T1 sequence (P20813 1-491): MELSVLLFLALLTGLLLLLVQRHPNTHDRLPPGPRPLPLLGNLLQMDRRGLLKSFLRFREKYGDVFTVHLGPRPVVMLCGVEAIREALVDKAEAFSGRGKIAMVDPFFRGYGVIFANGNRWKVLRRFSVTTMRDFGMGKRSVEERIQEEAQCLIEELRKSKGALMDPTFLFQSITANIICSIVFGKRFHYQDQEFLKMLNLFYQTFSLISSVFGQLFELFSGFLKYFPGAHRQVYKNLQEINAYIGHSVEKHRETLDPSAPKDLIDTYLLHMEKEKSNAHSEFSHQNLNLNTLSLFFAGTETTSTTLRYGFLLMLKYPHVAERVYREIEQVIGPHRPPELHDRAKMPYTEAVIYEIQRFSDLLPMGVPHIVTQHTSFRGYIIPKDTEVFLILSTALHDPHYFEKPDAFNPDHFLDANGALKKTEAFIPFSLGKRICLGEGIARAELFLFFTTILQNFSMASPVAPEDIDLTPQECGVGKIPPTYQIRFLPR

[2] = biological target: CYP2C9 (Homo sapiens, UniProt P11712)
Chain of CYP2C9 (P11712 whole entry): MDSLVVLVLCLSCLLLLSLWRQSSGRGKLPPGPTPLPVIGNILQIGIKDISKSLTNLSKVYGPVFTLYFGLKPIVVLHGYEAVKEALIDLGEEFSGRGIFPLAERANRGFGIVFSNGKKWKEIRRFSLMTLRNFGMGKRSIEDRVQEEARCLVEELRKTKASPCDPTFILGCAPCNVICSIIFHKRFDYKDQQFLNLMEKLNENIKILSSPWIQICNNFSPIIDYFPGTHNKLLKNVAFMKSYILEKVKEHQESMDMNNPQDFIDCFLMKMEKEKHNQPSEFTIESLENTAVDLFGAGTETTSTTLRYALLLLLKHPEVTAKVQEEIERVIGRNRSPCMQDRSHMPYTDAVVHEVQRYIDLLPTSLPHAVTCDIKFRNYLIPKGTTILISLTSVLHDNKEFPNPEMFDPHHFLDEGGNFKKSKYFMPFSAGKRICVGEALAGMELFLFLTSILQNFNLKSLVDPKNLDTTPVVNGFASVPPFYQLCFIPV

[3] = biological target: CYP3A4 (Homo sapiens, UniProt P08684)
Chain of CYP3A4 (P08684 whole entry): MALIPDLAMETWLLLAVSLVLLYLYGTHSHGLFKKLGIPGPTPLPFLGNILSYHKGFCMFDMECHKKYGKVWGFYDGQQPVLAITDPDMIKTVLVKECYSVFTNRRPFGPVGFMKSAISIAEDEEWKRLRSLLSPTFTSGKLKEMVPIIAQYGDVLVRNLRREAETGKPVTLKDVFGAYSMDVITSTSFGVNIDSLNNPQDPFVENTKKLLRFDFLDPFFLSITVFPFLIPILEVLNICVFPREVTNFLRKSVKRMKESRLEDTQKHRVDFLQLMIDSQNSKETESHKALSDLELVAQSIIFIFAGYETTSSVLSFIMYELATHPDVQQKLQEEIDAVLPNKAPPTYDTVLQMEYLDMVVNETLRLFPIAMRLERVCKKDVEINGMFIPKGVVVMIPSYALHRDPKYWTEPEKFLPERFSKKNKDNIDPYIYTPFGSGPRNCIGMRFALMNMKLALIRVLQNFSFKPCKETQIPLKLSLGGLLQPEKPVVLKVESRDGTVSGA

[4] = in vivo
[5] = system: sodium channel; conditions: human and animal models
[6] = biological target: CYP2C19 (Homo sapiens, UniProt P33261)
Chain of CYP2C19 (P33261 whole entry): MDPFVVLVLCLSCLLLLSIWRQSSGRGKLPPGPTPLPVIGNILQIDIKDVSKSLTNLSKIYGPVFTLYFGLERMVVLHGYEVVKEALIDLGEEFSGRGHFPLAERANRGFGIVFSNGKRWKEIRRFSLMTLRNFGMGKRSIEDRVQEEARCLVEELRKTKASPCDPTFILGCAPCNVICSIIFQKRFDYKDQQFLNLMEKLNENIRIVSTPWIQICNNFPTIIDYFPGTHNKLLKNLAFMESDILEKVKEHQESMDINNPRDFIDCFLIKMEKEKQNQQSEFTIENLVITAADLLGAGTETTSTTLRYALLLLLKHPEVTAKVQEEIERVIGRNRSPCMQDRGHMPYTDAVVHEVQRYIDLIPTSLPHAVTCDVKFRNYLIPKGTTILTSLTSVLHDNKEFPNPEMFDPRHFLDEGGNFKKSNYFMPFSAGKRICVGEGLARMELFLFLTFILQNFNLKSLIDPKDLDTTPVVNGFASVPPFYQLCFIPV

[7] = biological target: CB2 (Homo sapiens, UniProt P34972); conditions: Pacher et al., 2006
Chain of CB2 (P34972 whole entry, species assumed): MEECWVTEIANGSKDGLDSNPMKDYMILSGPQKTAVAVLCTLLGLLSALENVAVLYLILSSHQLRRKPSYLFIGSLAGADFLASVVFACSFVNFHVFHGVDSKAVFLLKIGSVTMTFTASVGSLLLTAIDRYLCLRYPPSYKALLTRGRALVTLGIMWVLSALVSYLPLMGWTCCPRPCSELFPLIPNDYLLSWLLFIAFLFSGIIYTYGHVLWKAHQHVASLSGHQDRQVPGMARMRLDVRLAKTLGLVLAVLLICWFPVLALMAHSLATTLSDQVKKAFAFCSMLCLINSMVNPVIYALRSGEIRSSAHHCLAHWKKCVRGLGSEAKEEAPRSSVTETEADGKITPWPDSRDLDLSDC

[8] = biological target: T2, CYP2C8 (Homo sapiens, UniProt P10632)
T2 sequence (P10632 1-490): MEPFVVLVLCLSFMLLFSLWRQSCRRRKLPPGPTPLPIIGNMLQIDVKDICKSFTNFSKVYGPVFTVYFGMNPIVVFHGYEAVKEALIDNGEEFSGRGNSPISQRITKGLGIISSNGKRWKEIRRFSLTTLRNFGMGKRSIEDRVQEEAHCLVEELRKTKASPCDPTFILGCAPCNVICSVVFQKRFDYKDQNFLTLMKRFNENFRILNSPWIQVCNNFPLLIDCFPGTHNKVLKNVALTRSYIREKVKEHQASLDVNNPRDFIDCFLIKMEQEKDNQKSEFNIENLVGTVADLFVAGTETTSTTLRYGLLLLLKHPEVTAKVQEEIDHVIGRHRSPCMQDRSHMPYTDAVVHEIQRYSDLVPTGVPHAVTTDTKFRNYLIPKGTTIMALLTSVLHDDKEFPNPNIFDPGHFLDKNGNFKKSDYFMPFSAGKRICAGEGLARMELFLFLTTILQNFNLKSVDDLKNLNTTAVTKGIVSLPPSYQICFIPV

| Compound | Inhibition of CYP2B6 [1] | Lipid solubility | Inhibition of CYP2C9 [2] | Inhibition of CYP3A4 [3] | Route of excretion [4] | Time CBD levels are detected post administration [4] | Sodium channel block [5] | Inhibition of CYP2C19 [6] | Affinity for cannabinoid receptor CB2 [7] | Inhibition of CYP2C8 [8] |
| --- | --- | --- | --- | --- | --- | --- | --- | --- | --- | --- |
| C=C(C)[C@@H]1CCC(C)=C[C@H]1c1c(O)cc(CCCCC)cc1O [CBD, cannabidiol] | potent inhibitor | highly lipid soluble | potent inhibitor | potent inhibitor | excreted in the urine and feces | up to 8 hours | potent sodium channel blockers | potent inhibitor | does not appear to have a great affinity | potent inhibitor |
| CCCCCc1cc(O)c(C/C=C(\C)CCC=C(C)C)c(O)c1 [CBG, cannabigerol] | – | – | – | – | – | – | potent sodium channel blockers | – | – | – |
